Tested on: IL-6 mediated proliferation of B9.9 cells
Assay: IL-6-dependent B9.9 cell proliferation assay
Format: cell-based, mouse
Details: peptide concentration = 250 μM
Description: Peptides according to the invention were synthesized by the solid phase peptide synthesis method (Merrifield, J. Am. Chem. Soc. 85:2149, 1963). The amino acid numbering of peptides derived from the IL-6 receptor (IL-6R) sequence is based on the published sequence of Yamasaki, et al, (Science 241:825, 1988), and numbering of peptides derived from the IL-6 sequence is based on the sequence of IL-6 as published by Hirano, et al. (Nature 324:73, 1986). The numbering refers to the position of the amino acids in the mature protein after excision of the signal sequence. Activity was established in an IL-6-dependent B9.9 cell proliferation assay as described hereunder.
IL-6 antagonist activity of the subject peptides was measured using the IL-6 dependent B9.9 hybridoma cell line as described in Brakenhoff et al., J. Immunol. […]
1×10^4 cells were cultured in presence of 4-fold serial dilutions (1:16 to 1:65,536) of F-IL-6 in RPMI supplemented with 10% fetal calf serum, 2 mM L-glutamine, and 5 ×10^-5 M 2-mercaptoethanol in flat bottom microtiter plates. After 2 days the cells were incubated for 4 hours with 3-(4,5-dimethylthiazol-2-yl)-diphenyl tetrazolium bromide (MTT) and the absorbance was measured at 570-650 nm as described in Mosmann, J. Immunol. […] One unit of IL-6 was defined as the amount of IL-6 required to obtain half maximal proliferation and was calculated by probit analysis. […]

Substance | Percent Inhibition of IL-6 mediated proliferation of B9.9 cells [%]
Ac-GQLRAQEEFGQGE-NH2 [Ac-GQLRAQEEFGQGE-NH2] | 92 ± 6
GAAAENNNLNLP | 29 ± 19

Reference: patent publication US5210075A, “Interleukin 6 antagonist peptides” (Tanabe Seiyaku Co., Ltd., priority 1990, dated 1993)
